The values below come from US8242159B2, “1,3-dihydro-5-isobenzofurancarbonitrile derivatives and pharmaceutical composition thereof for the treatment of premature ejaculation” (Dong-A Pharmaceutical. Co., Ltd, priority 2007, dated 2012).

The test system of the assay is Male Wistar rats. As to the kind of experiment: p-PCA-induced ejaculation in anesthetized rats (ejaculation-delaying effect). It counts as in vivo, rat. The following applies: for Ratio: Number of responding animals/total animal number: 50 mg/kg oral in 1% HPMC, p-PCA 5 mg/kg i.p. 80 min later, observed 30 min; for Latency: Time to display the ejaculatory response: 50 mg/kg oral, p-PCA 5 mg/kg i.p., mean ± standard deviation of responding rats. Here is the method: The compounds prepared in the above examples were evaluated to determine whether they have an effect of delaying ejaculation. The evaluation was carried out using an animal model according to a method described in Yonezawa et al., Life Sci. 2000, 67(25) p 3031-9. Male Wistar rats weighing 240-260 g were used. Each compound was suspended in 1% HPMC, and then administered orally to each animal. After 60 min, the animals were anesthetized and fixed. 20 min later, para-chloroamphetamine (p-PCA) was intraperitoneally administered in a dose of 5 mg/kg in order to induce ejaculation. […] An ejaculatory response was considered to be elicited when rhythmic contraction of bulbocavernosus muscles and semen discharge occurs. Six or more animals were used for each compound. A Fisher's […] test was performed for the comparison of the proportion of responding rats (ejaculated rats) to determine significance of difference between a treatment group and a vehicle control. The time to reach ejaculation was expressed as mean±standard deviation.
Each test compound was administered at a dose of 50 mg/kg. Ejaculation was elicited in all seven animals of a control group.

In the case of `Cl.N#Cc1ccc2c(c1)COC2(CCn1cccn1)c1ccc(F)cc1` (stereo not shown) [Ex. 60, 1-(4-fluorophenyl)-1-{2-(pyrazole-1-yl)ethyl}-1,3-dihydro-5-isobenzofurancarbonitrile hydrochloride], the “Ratio: Number of responding animals/total animal number” value is 4/9 and the “Latency: Time to display the ejaculatory response” value (“Latency: Time” for short) came to 1010 ± 400 s. As to `N#Cc1ccc2c(c1)COC2(CCn1ccnc1)c1ccccc1` (stereo not shown) [Ex. 18, 1-{2-(imidazole-1-yl)ethyl}-1-phenyl-1,3-dihydro-5-isobenzofurancarbonitrile], the “Ratio: Number of responding animals/total animal number” value is 3/7 and the “Latency: Time” value was 691 ± 361 s. Regarding `N#Cc1ccc2c(c1)COC2(CCCn1cccn1)c1ccc(F)cc1` (stereo not shown) [Ex. 57, 1-(4-fluorophenyl)-1-{3-(pyrazole-1-yl)propyl}-1,3-dihydro-5-isobenzofurancarbonitrile], the “Ratio: Number of responding animals/total animal number” value is 4/9 and the “Latency: Time” value turned out to be 951 ± 342 s. The like results for `N#Cc1ccc2c(c1)COC2(CCCn1cccn1)c1cccs1` (stereo not shown) [Ex. 49, 1-{3-(pyrazole-1-yl)propyl}-1-(2-thienyl)-1,3-dihydro-5-isobenzofurancarbonitrile] were, in that order, 5/9 and 807 ± 301 s. Turning to `N#Cc1ccc2c(c1)COC2(CCCn1ccnc1)c1ccc(Cl)cc1` (stereo not shown) [Ex. 61, 1-(4-chlorophenyl)-1-{3-(imidazole-1-yl)propyl}-1,3-dihydro-5-isobenzofurancarbonitrile], the “Ratio: Number of responding animals/total animal number” value was 3/7 and the “Latency: Time” value was 930 ± 247 s. The like results for `CN(C)CCC1(c2ccccc2)OCc2cc(C#N)ccc21.Cl` (stereo not shown) [Ex. 15, 1-{2-(dimethylamino)ethyl}-1-phenyl-1,3-dihydro-5-isobenzofurancarbonitrile hydrochloride] were, in that order, 4/9 and 1345 ± 510 s. `Cl.N#Cc1ccc2c(c1)COC2(CCCn1cccn1)c1ccc(Cl)cc1` (stereo not shown) [Ex. 66, 1-(4-chlorophenyl)-1-{3-(pyrazole-1-yl)propyl}-1,3-dihydro-5-isobenzofurancarbonitrile hydrochloride]: the “Ratio: Number of responding animals/total animal number” value is reported as 4/7 and the “Latency: Time” value turned out to be 960 ± 350 s. With `CN(C)CCCC1(c2cccs2)OCc2cc(C#N)ccc21.Cl` (stereo not shown) [Ex. 41, 1-{3-(dimethylamino)propyl}-1-(2-thienyl)-1,3-dihydro-5-isobenzofurancarbonitrile hydrochloride], the “Ratio: Number of responding animals/total animal number” value is 1/7 and the “Latency: Time” value is 702 s. Consider `COc1ccc(C2(CCn3cccn3)OCc3cc(C#N)ccc32)cc1.Cl` (stereo not shown) [Ex. 11, 1-(4-methoxyphenyl)-1-{2-(pyrazole-1-yl)ethyl}-1,3-dihydro-5-isobenzofurancarbonitrile hydrochloride], for which the “Ratio: Number of responding animals/total animal number” value was 3/7 and the “Latency: Time” value was 974 ± 289 s. With `CN(C)c1ccc(C2(CCCn3ccnc3)OCc3cc(C#N)ccc32)cc1.Cl` (stereo not shown) [Ex. 38, 1-(4-dimethylaminophenyl)-1-{3-(imidazole-1-yl)propyl}-1,3-dihydro-5-isobenzofurancarbonitrile hydrochloride], the “Ratio: Number of responding animals/total animal number” value is 4/7 and the “Latency: Time” value was 764 ± 304 s. The corresponding values for `Cc1ccc(C2(CCn3cccn3)OCc3cc(C#N)ccc32)cc1` (stereo not shown) [Ex. 32, 1-{2-(pyrazole-1-yl)ethyl}-1-(4-tolyl)-1,3-dihydro-5-isobenzofurancarbonitrile] are 4/9 and 1000 ± 401 s.

In the case of `Cc1ccc(C2(CCCN(C)C)OCc3cc(C#N)ccc32)cc1` (stereo not shown) [Ex. 22, 1-{3-(dimethylamino)propyl}-1-(4-tolyl)-1,3-dihydro-5-isobenzofurancarbonitrile], the “Ratio: Number of responding animals/total animal number” value is on record as 3/7 and the “Latency: Time” value worked out at 830 ± 287 s. As for `N#Cc1ccc2c(c1)COC2(CCn1cccn1)c1ccccc1` (stereo not shown) [Ex. 20, 1-phenyl-1-{2-(pyrazole-1-yl)ethyl}-1,3-dihydro-5-isobenzofurancarbonitrile], the “Ratio: Number of responding animals/total animal number” value is on record as 3/7 and the “Latency: Time” value stood at 978 ± 378 s.

Consider `N#Cc1ccc2c(c1)COC2(CCCn1ccnc1)c1ccc(F)cc1` (stereo not shown) [Ex. 53, 1-(4-fluorophenyl)-1-{3-(imidazole-1-yl)propyl}-1,3-dihydro-5-isobenzofurancarbonitrile], for which the “Ratio: Number of responding animals/total animal number” value is recorded as 4/9 and the “Latency: Time” value amounted to 1054 ± 320 s. Turning to `N#Cc1ccc2c(c1)COC2(CCn1cccn1)c1ccc(F)cc1` (stereo not shown) [Ex. 59, 1-(4-fluorophenyl)-1-{2-(pyrazole-1-yl)ethyl}-1,3-dihydro-5-isobenzofurancarbonitrile], the “Ratio: Number of responding animals/total animal number” value is 3/7 and the “Latency: Time” value is 954 ± 287 s. On to `Cl.N#Cc1ccc2c(c1)COC2(CCCn1ccnc1)c1cccs1` (stereo not shown) [Ex. 46, 1-{3-(imidazole-1-yl)propyl}-1-(2-thienyl)-1,3-dihydro-5-isobenzofurancarbonitrile hydrochloride], for which the “Ratio: Number of responding animals/total animal number” value was 0/7.

Regarding `Cc1ccc(C2(CCN(C)C)OCc3cc(C#N)ccc32)cc1.Cl` (stereo not shown) [Ex. 25, 1-{2-(dimethylamino)ethyl}-1-(4-tolyl)-1,3-dihydro-5-isobenzofurancarbonitrile hydrochloride], the “Ratio: Number of responding animals/total animal number” value is recorded as 4/9 and the “Latency: Time” value came out at 841 ± 254 s. As for `COc1ccc(C2(CCCn3cccn3)OCc3cc(C#N)ccc32)cc1` (stereo not shown) [Ex. 8, 1-(4-methoxyphenyl)-1-{3-(pyrazole-1-yl)propyl}-1,3-dihydro-5-isobenzofurancarbonitrile], the “Ratio: Number of responding animals/total animal number” value was 4/9 and the “Latency: Time” value was found to be 1230 ± 421 s.

As to `Cc1ccc(C2(CCN(C)C)OCc3cc(C#N)ccc32)cc1` (stereo not shown) [Ex. 24, 1-{2-(dimethylamino)ethyl}-1-(4-tolyl)-1,3-dihydro-5-isobenzofurancarbonitrile], the “Ratio: Number of responding animals/total animal number” value is recorded as 3/7 and the “Latency: Time” value stood at 1021 ± 367 s.

Consider `COc1ccc(C2(CCn3cccn3)OCc3cc(C#N)ccc32)cc1` (stereo not shown) [Ex. 10, 1-(4-methoxyphenyl)-1-{2-(pyrazole-1-yl)ethyl}-1,3-dihydro-5-isobenzofurancarbonitrile], for which the “Ratio: Number of responding animals/total animal number” value was 4/9 and the “Latency: Time” value amounted to 889 ± 360 s. With `Cl.N#Cc1ccc2c(c1)COC2(CCn1cccn1)c1ccccc1` (stereo not shown) [Ex. 21, 1-phenyl-1-{2-(pyrazole-1-yl)ethyl}-1,3-dihydro-5-isobenzofurancarbonitrile hydrochloride], the “Ratio: Number of responding animals/total animal number” value is on record as 4/7 and the “Latency: Time” value worked out at 799 ± 387 s. Consider `Cc1ccc(C2(CCn3ccnc3)OCc3cc(C#N)ccc32)cc1.Cl` (stereo not shown) [Ex. 29, 1-{2-(imidazole-1-yl)ethyl}-1-(4-tolyl)-1,3-dihydro-5-isobenzofurancarbonitrile hydrochloride], for which the “Ratio: Number of responding animals/total animal number” value was 5/9 and the “Latency: Time” value came to 1054 ± 287 s. The like results for `Cc1ccc(C2(CCCn3ccnc3)OCc3cc(C#N)ccc32)cc1.Cl` (stereo not shown) [Ex. 27, 1-{3-(imidazole-1-yl)propyl}-1-(4-tolyl)-1,3-dihydro-5-isobenzofurancarbonitrile hydrochloride] were, in that order, 3/7 and 864 ± 257 s. For the compound `CN(C)c1ccc(C2(CCCn3ccnc3)OCc3cc(C#N)ccc32)cc1` (stereo not shown) [Ex. 37, 1-(4-dimethylaminophenyl)-1-{3-(imidazole-1-yl)propyl}-1,3-dihydro-5-isobenzofurancarbonitrile], the “Ratio: Number of responding animals/total animal number” value was 4/7 and the “Latency: Time” value was 950 ± 241 s. For `COc1ccc(C2(CCn3ccnc3)OCc3cc(C#N)ccc32)cc1.Cl` (stereo not shown) [Ex. 7, 1-{2-(imidazole-1-yl)ethyl}-1-(4-methoxyphenyl)-1,3-dihydro-5-isobenzofurancarbonitrile hydrochloride], the “Ratio: Number of responding animals/total animal number” value is 5/9 and the “Latency: Time” value was found to be 963 ± 304 s. The like results for `N#Cc1ccc2c(c1)COC2(CCCn1ccnc1)c1cccs1` (stereo not shown) [Ex. 44, 1-{3-(imidazole-1-yl)propyl}-1-(2-thienyl)-1,3-dihydro-5-isobenzofurancarbonitrile] were, in that order, 4/7 and 904 ± 350 s.

On to `CN(C)CCCC1(c2ccc(N(C)C)cc2)OCc2cc(C#N)ccc21` (stereo not shown) [Ex. 34, 1-(4-dimethylaminophenyl)-1-{3-(dimethylamino)propyl}-1,3-dihydro-5-isobenzofurancarbonitrile], for which the “Ratio: Number of responding animals/total animal number” value is 4/9 and the “Latency: Time” value stood at 807 ± 304 s.

`CN(C)CCCC1(c2cccs2)OCc2cc(C#N)ccc21` (stereo not shown) [Ex. 39, 1-{3-(dimethylamino)propyl}-1-(2-thienyl)-1,3-dihydro-5-isobenzofurancarbonitrile]: the “Ratio: Number of responding animals/total animal number” value was 5/9 and the “Latency: Time” value amounted to 854 ± 287 s.
